The text below walks through data of patent publication US12636370B2, “Combination therapy for treatment of cancer” (Institute For Cancer Research, priority 2019, dated 2026).

Common to all, as to type: cell-based
In experiment [1] the test system is OVCAR8 cells. As to the kind of experiment: Single-run proteome analysis and RNA-seq, OVCAR8 cells. Conditions: 48 hours, single-run proteome analysis. As to the method:
Enrichment maps of pathways repressed by short-term BBD generated from single-run proteome profiles of OVCAR8 cells treated with BBDs (MZ1 or ARV825) for 48 hours were prepared (data not shown). Statistical differences in protein log 2 LFQ z-scores comparing BBDs or BBIs to control treated cells was determined by paired T-Test Benjamini-Hochberg adjusted p values at FDR of <0.05 using Perseus Software. […] Enrichment maps were generated in Cytoscape using the Enrichment Map app v2.2.1. […] Statistical differences in protein log 2 LFQ z-scores comparing BBDs or BBIs to control treated cells was determined.

Experiment [2] has as its system OVCAR8 ARV-R cells. Briefly: CellTiter-Glo cell viability, OVCAR8 ARV-R cells. Conditions: escalating doses, 5 days. (In general: ATP-based viability assays read luminescence as a measure of living cells.)
Experiment [3] has as its system BET proteins (BRD2, BRD3, BRD4). As to the kind of experiment: Western blot of BET proteins and BRD4 targets, OVCAR8 MZ1-R cells. Conditions: Western blot. (Immunoblotting shows a protein as a band on a membrane.)
The test system of experiment [4] is OVCAR8 MZ1-R cells. As to the kind of experiment: CellTiter-Glo cell viability, OVCAR8 MZ1-R cells. Conditions: escalating doses, 5 days; for cell viability of MZ1-R cells compared with parental cells: OVCAR8 MZ1-R; for sensitivity of MZ1-R cells relative to JQ1-R cells or parental cells: OVCAR8, inhibitor screen.
The test system of experiment [5] is BET proteins, FOSL1, MYC. As to the kind of experiment: Western blot of BET proteins and BRD4 targets, JQ1-R cells.
The test system of experiment [6] is OVCAR8 JQ1-R cells. Briefly: Apoptosis by cleaved PARP Western blot, OVCAR8 JQ1-R cells.
Experiment [7] deals with BET proteins (BRD2, BRD3, BRD4). As to the kind of experiment: Western blot of BET protein levels, OVCAR8 parental cells.
For experiment [8], the system named is OVCAR8 JQ1-R cells. As to the kind of experiment: CellTiter-Glo cell viability, OVCAR8 JQ1-R cells. Conditions: escalating doses, 5 days.
Experiment [9] deals with BET proteins (BRD2, BRD3, BRD4). Briefly: Western blot of BET proteins, OVCAR8 ARV-R cells.
The test system of experiment [10] is OVCAR8 MZ1-R cells. Briefly: Apoptosis by Western blot, OVCAR8 MZ1-R cells.
For experiment [11], the system named is OVCAR8 ARV-R cells. Briefly: Apoptosis by cleaved PARP Western blot, OVCAR8 ARV-R cells.
Experiment [12] concerns translation markers, RNA pol II, MYC. Briefly: Western blot of translation, BRD4-targets and MYC signaling, OVCAR8 cells. Conditions: 500 nM, 48 hours.
The test system of experiment [13] is OVCAR8 cells. As to the kind of experiment: CellTiter-Glo cell viability, OVCAR8 parental cells. Conditions: dose escalation, 5 days.
The test system of experiment [14] is INSR and downstream MTOR, AKT and MAPK signaling. As to the kind of experiment: Kinase signaling in BBD-R cells (MIB-MS, phospho-blot). Conditions: for phosphorylation of P70S6K (T359): BBD-R cells (MZ1-R, ARV-R), 1 μM, 4 hours. As for the experimental part:
Reduced MIB-binding of kinases involved in cell cycle (WEE1, CHEK1, CDK2, CDK6 and PLK1), as well as kinases required for translation (EIF2AK1, EIF2AK2, and EIF2AK4) were also observed following GSK529A treatment. […] Enrichment maps of pathways repressed by INSR inhibition generated from MIB-MS profiles of OVCAR8 cells treated with GSK529A (1 μM) treatment for 48 hours. Statistical differences in protein log 2 LFQ z-scores comparing GSK529A to control treated MZ1-R cells was determined by paired T-Test Benjamini- Hochberg adjusted p values at FDR of <0.05 using Perseus Software. […] Enrichment maps were generated in Cytoscape using the Enrichment Map app v2.2.1. (data not shown).

The subject of experiment [15] is OVCAR5 JQ1-R cells. Briefly: Growth curves, OVCAR5 JQ1-R cells.
Experiment [16] has as its system KURAMOCHI, COV362 and OVCAR5 MZ1-R cells. As to the kind of experiment: CellTiter-Glo cell viability, KURAMOCHI, COV362 and OVCAR5 MZ1-R cells. Conditions: COV362 and OVCAR5, escalating doses, 5 days.
Experiment [17] deals with BRD2, BRD3 or BRD4 RNA. Briefly: qRT-PCR of BRD RNA levels, OVCAR8 MZ1-R cells. Conditions: 1 μM, 48 hours. Background: Real-time PCR tracks product formation cycle by cycle.
For experiment [18], the system named is BET proteins (BRD2, BRD4). Briefly: Western blot of BET proteins, KURAMOCHI, COV362 and OVCAR5 MZ1-R cells.

Consider `Cc1sc2c(c1C)C(c1ccc(Cl)cc1)=N[C@@H](CC(=O)Nc1ccc(OCCOCCOCCOCCNc3cccc4c3C(=O)N(C3CCC(=O)NC3=O)C4=O)cc1)c1nnc(C)n1-2` (stereo partly shown) [ARV825], for which the “global protein level changes” value in experiment [1] was “uniquely downregulated proteins involved in ribosome and translation signaling”. For the same molecule, the “cell viability of ARV-R cells compared with parental cells” value in experiment [2] is “rightward shift”. For the same molecule, the BET protein levels entry in experiment [3] is given as “reduced BET proteins”; in experiment [5] it was “degraded BET proteins”; in experiment [7], “degraded BET proteins in a concentration-dependent manner”; in [9], “insufficient to degrade BRD2, BRD3 or BRD4”. For the same molecule, in experiment [4], the “cell viability of MZ1-R cells compared with parental cells” value is “inhibited cell viability”. Also, the “BRD4 target (FOSL1, MYC) protein levels” value in experiment [5] was “reduced MYC/FOSL1 protein levels”. The values for the apoptosis result in experiment [6] and in experiment [10] were “induced apoptosis” and “promoted apoptosis”, respectively. For the same molecule, the “cell viability of JQ1-R cells” value in experiment [8] is “inhibited cell viability”.

Turning to `Cc1ncsc1-c1ccc([C@H](C)NC(=O)[C@@H]2C[C@@H](O)CN2C(=O)[C@@H](NC(=O)COCCCOCCNC(=O)C[C@@H]2N=C(c3ccc(Cl)cc3)c3c(sc(C)c3C)-n3c(C)nnc32)C(C)(C)C)cc1` [ARV-771], in experiment [11], the apoptosis result is given as “failed to reduce BET proteins, block growth or induce apoptosis”. Besides, the “cell viability of ARV-R cells compared with parental cells” value in [2] is “failed to reduce BET proteins, block growth or induce apoptosis”. Also, the “cell viability of MZ1-R cells compared with parental cells” value in [4] is listed as “cross-resistant”. Also, in experiment [9], the BET protein levels result is reported as “failed to reduce BET proteins, block growth or induce apoptosis”.

Take `O=C(O)c1ccc2c(c1)nc(Nc1cccc(Cl)c1)c1ccncc12` [Cx-4945]: the “cell viability of MZ1-R cells compared with parental cells” value in [4] was “more sensitive”. In addition, the “cell viability of JQ1-R cells” value in [8] is reported as “more sensitive”.

Turning to `CS(=O)(=O)N1CCN(Cc2cc3nc(-c4cccc5[nH]ncc45)nc(N4CCOCC4)c3s2)CC1` [GDC-0941], the “cell viability of MZ1-R cells compared with parental cells” value in [4] is “more sensitive”. Besides, the “cell viability of JQ1-R cells” value in experiment [8] is on record as “more sensitive”.

In the case of `Cc1sc2c(c1C)C(c1ccc(Cl)cc1)=N[C@@H](CC(=O)OC(C)(C)C)c1nnc(C)n1-2` [JQ1], in [2], the “cell viability of ARV-R cells compared with parental cells” value is “reduced cell viability to a greater extent than parental cells”. In addition, in [12], the “RNA pol II (S2) phosphorylation” value is given as “not observed with JQ1”. Moreover, the 50% growth inhibitory concentration (GI50) in experiment [13] worked out at 133 nM. In addition, the “cell viability of MZ1-R cells compared with parental cells” value in experiment [4] was “reduced cell viability to a greater extent than parental cells”. The “BRD4 target (FOSL1, MYC) protein levels” value in experiment [5] is recorded as “failed to reduce BRD4 target FOSL1”. For the same molecule, the “cell viability of JQ1-R cells” value in experiment [8] is recorded as “unaffected by increasing doses of JQ1”.

On to `COc1ncccc1-c1cnn2ccc(N3CCN(C(=O)OC(C)C)CC3)nc12` [LP-935509], for which the “cell viability of ARV-R cells compared with parental cells” value in experiment [2] was “reduced cell viability more than in parental cells”. Moreover, the “sensitivity of MZ1-R cells relative to JQ1-R cells or parental cells” value in [4] was “more sensitive”.

For the molecule `CNc1ncc2cc(-c3cc(NC(=O)NCCC(C)(C)C)c(F)cc3C)c(C)nc2n1` [LY3009120], the “cell viability of JQ1-R cells” value in experiment [8] is on record as “most profound impact on JQ1-R cell viability”.

Take `NC1(c2ccc(-c3nc4ccn5c(=O)[nH]nc5c4cc3-c3ccccc3)cc2)CCC1` [MK-2206]: the “cell viability of ARV-R cells compared with parental cells” value in experiment [2] is “reduced cell viability more than in parental cells”. For the same molecule, in experiment [4], the “sensitivity of MZ1-R cells relative to JQ1-R cells or parental cells” value was “more sensitive”.

For the molecule `COC[C@@H](C)NC1CCC(Nc2cc(-c3cccc(NCC4(C#N)CCOCC4)n3)c(Cl)cn2)CC1` (stereo partly shown) [NVP-2], in experiment [4], the “cell viability of MZ1-R cells compared with parental cells” value is recorded as “more sensitive”. Besides, in [8], the “cell viability of JQ1-R cells” value is “more sensitive”.

`CNC(=O)c1ccccc1Nc1cc(Nc2ccc(N3CCOCC3)cc2OC)ncc1C(F)(F)F` [PND-1186]: the “sensitivity of MZ1-R cells relative to JQ1-R cells or parental cells” value in experiment [4] is listed as “more sensitive”.

Take `CCC(=O)N1CCN(c2ccc(-n3c(=O)ccc4cnc5ccc(-c6cnc7ccccc7c6)cc5c43)cc2C(F)(F)F)CC1` [Torin-1]: the BET protein levels result in experiment [3] was “reduced BRD2 and BRD4 levels”; in experiment [9] it was “reduced BRD2 and BRD4 levels”. The “phosphorylation of P70S6K (T359)” value in [14] is reported as “reduced MTOR-mediated phosphorylation of P70S6K (T359)”.

Consider `CC(C)C[C@H](NC(=O)[C@H](Cc1ccccc1)NC(=O)c1cnccn1)B(O)O` [bortezomib], for which the “phosphorylated RNA pol II (S2)” value in experiment [14] (OVCAR8 MZ1-R cells, 48 hour RAD001 treatment, with or without bortezomib) was “could be reversed by bortezomib treatment”.

`CCN(CCO)CCCC(C)Nc1ccnc2cc(Cl)ccc12` (stereo not shown) [hydroxychloroquine]: the “cell viability of MZ1-R cells compared with parental cells” value in experiment [4] was “more sensitive”. In experiment [8], the “cell viability of JQ1-R cells” value is “more sensitive”.

For `CS(=O)(=O)CCNCc1ccc(-c2ccc3ncnc(Nc4ccc(OCc5cccc(F)c5)c(Cl)c4)c3c2)o1` [lapatinib], in experiment [15], the growth inhibition result is “minimal growth inhibition”. Also, the “cell viability of ARV-R cells compared with parental cells” value in experiment [2] is reported as “reduced cell viability more than in parental cells”. Also, the “cell viability / growth of MZ1-R cells compared with parental cells” value in experiment [16] is given as “significantly blocked cell growth to a greater extent than parental cells”. The BET protein levels result in experiment [3] was “reduced BRD2 and BRD4 levels”; in experiment [18], “reduced BRD2 and BRD4 proteins”; in experiment [9], “reduced BRD2 and BRD4 levels”. For the same molecule, the “phosphorylation of P70S6K (T359)” value in experiment [14] is “reduced MTOR-mediated phosphorylation of P70S6K (T359)”. Also, the “BRD2, BRD3 or BRD4 RNA levels” value in experiment [17] is “unaffected”.

As to `O=C(c1cc(Cc2n[nH]c(=O)c3ccccc23)ccc1F)N1CCN(C(=O)C2CC2)CC1` [olaparib], the “cell viability of MZ1-R cells compared with parental cells” value in experiment [4] was “more sensitive”. Besides, in [8], the “cell viability of JQ1-R cells” value is listed as “more sensitive”.

For orientation: GI50 means the concentration giving 50% growth inhibition.
